Some test systems named below: SN12C; UO-31; SK-MEL-2; UACC-257; HCT-15; OVCAR-5; SF-268; KM12; HL-60; HCC 2998; UACC-62; EKVX; MOLT-4; K562; SK-MEL-28; HCT-116; OVCAR-3; RXF 393; NCI-H460; NCI-H23.
What all share (assay): DTP human tumour cell line panel, 48 h

Molecules are shown by their SMILES.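 Step 1: Grow cells in 96-well plates. Step 2: Expose to compound for 48 hours at 5 concentrations. Step 3: Interpolate endpoints linearly; if unreached, use highest concentration. The concentration for 50% growth inhibition is given as GI50.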 The source made the active and inactive calls. Rule as the data show it: active = GI50 up to about 1.1 µM and inactive = higher.

With `CN1CN(C(=O)N2CN(C)C(=O)N(C)C2)CN(C)C1=O`, the GI50 is > 100 µM (inactive) in the assay with SN12C; > 100 µM (inactive) with UO-31; > 100 µM (inactive) in the assay on SK-MEL-2; > 100 µM (inactive) with UACC-257; over 100 µM with HCT-15; > 100 µM (inactive) in the assay with OVCAR-5. In addition, the GI50 with SF-268, in the assay on KM12, with HL-60, in the assay on HCC 2998, in the assay with UACC-62 and with EKVX was > 100 µM (inactive) each time. Moreover, the GI50 with MOLT-4, with K562, with SK-MEL-28, with HCT-116 and with OVCAR-3 was > 100 µM (inactive) each time.
As to `O=C(O)C12CC3CC(C1)C2C=C3P(=O)(O)O` (configuration not stated), the GI50 with RXF 393, with SN12C, with NCI-H460, with UO-31, in the assay with SK-MEL-2 and in the assay on UACC-257 was > 100 µM (inactive) each time. The concentration for 50% growth inhibition (GI50) is over 100 µM in the assay with HCT-15; > 100 µM (inactive) in the assay with NCI-H23; > 100 µM (inactive) in the assay with OVCAR-5; > 100 µM (inactive) with SF-268; > 100 µM (inactive) in the assay with KM12; > 100 µM (inactive) with HL-60. For the same molecule, the GI50 in the assay on HCC 2998, in the assay with UACC-62, in the assay with EKVX, in the assay with MOLT-4, with K562 and in the assay with SK-MEL-28 was > 100 µM (inactive) in each case. Also, the GI50 in the assay with HCT-116 and in the assay with OVCAR-3 was > 100 µM (inactive) each time.
Regarding `CC(=O)OC1CC[C@@]2(C)C(=CC[C@@H]3[C@@H]2CC[C@]2(C)Nc4nn(S(C)(=O)=O)cc4C[C@@H]32)C1` (some centres not stated), the GI50 in the assay with RXF 393 was 18.6 µM (inactive); with SN12C, 59.7 µM (inactive); in the assay with NCI-H460, 18.7 µM (inactive); with UO-31, 37 µM (inactive); with SK-MEL-2, 22.3 µM (inactive); in the assay on HCT-15, 24.2 µM. Besides, the GI50 in the assay with NCI-H23 was 35.1 µM (inactive); in the assay with OVCAR-5, 37.9 µM (inactive); in the assay with KM12 it was 31.8 µM (inactive); with HL-60, > 10 µM (inactive); with HCC 2998 it was 30.4 µM (inactive); in the assay with UACC-62, 21.8 µM (inactive). Further, the GI50 in the assay with MOLT-4 was 16.1 µM (inactive); in the assay with K562, 12.1 µM (inactive); in the assay on SK-MEL-28, 28.4 µM (inactive); with OVCAR-3, 24.2 µM (inactive).
Take `CCOC(=O)C1=NN(c2ccccc2)C2=CC(C)=NN(C)C(=S)N21`: the GI50 was > 100 µM (inactive) in the assay on RXF 393; > 100 µM (inactive) with SN12C; 48.5 µM (inactive) with NCI-H460; > 100 µM (inactive) with UO-31; > 100 µM (inactive) in the assay with SK-MEL-2; > 100 µM (inactive) with UACC-257. The concentration for 50% growth inhibition (GI50) in the assay on HCT-15 was over 100 µM; with NCI-H23, > 100 µM (inactive); with OVCAR-5, > 100 µM (inactive); in the assay on SF-268, > 100 µM (inactive); with KM12, > 100 µM (inactive); in the assay with HL-60 it was > 100 µM (inactive). Also, the GI50 in the assay on HCC 2998, with UACC-62, with EKVX, with MOLT-4, in the assay with K562 and in the assay with SK-MEL-28 was > 100 µM (inactive) each time. In addition, the GI50 in the assay on HCT-116 and with OVCAR-3 was > 100 µM (inactive) in each case.
Take `O=C(/N=N/c1cc(Cl)ccc1Cl)NNc1cc(Cl)ccc1Cl`: the GI50 was 11.1 µM (inactive) in the assay on RXF 393; 21.4 µM (inactive) with SN12C; 17.3 µM (inactive) in the assay with NCI-H460; 11.7 µM (inactive) in the assay on UO-31; 20 µM (inactive) in the assay with SK-MEL-2; 16.5 µM in the assay on HCT-15. The GI50 is 18.1 µM (inactive) with NCI-H23; 17.6 µM (inactive) in the assay with OVCAR-5; 16.7 µM (inactive) with KM12; 4.41 µM (inactive) with HL-60; 25.9 µM (inactive) in the assay with HCC 2998; 11.2 µM (inactive) in the assay on UACC-62. Moreover, the GI50 in the assay on MOLT-4 is > 10 µM (inactive); in the assay on K562 it was 14.6 µM (inactive); with SK-MEL-28, 23.5 µM (inactive); in the assay on HCT-116, 18.6 µM (inactive); in the assay with OVCAR-3 it was 16.8 µM (inactive).
For the molecule `Cc1cc(O)nc(NN2C(Cl)C(=O)C2c2c(O)ccc3ccccc23)n1` (configuration not stated), the GI50 in the assay on RXF 393 is 13.2 µM (inactive); in the assay on SN12C, 21.7 µM (inactive); in the assay on NCI-H460, 15 µM (inactive); in the assay on UO-31, 26.1 µM (inactive); with SK-MEL-2, 15.2 µM (inactive); in the assay on UACC-257 it was 31.2 µM (inactive). Further, the GI50 in the assay on HCT-15 was 15.6 µM; with NCI-H23, 16.4 µM (inactive); in the assay on OVCAR-5 it was 36.9 µM (inactive); in the assay with SF-268, 23.1 µM (inactive); in the assay on KM12 it was 23 µM (inactive); in the assay with HL-60 it was 14.1 µM (inactive). The GI50 in the assay on HCC 2998 is 15 µM (inactive); with UACC-62, 20.3 µM (inactive); in the assay with EKVX it was 43.8 µM (inactive); with MOLT-4, 16.3 µM (inactive); with K562, 23.2 µM (inactive); in the assay with SK-MEL-28 it was 19.5 µM (inactive). For the same molecule, the values for the GI50 in the assay on HCT-116 and with OVCAR-3 were 17.3 µM (inactive) and 13.2 µM (inactive), respectively.
`CCP(=S)(CC)CCl`: the GI50 with SN12C is > 100 µM (inactive); in the assay on NCI-H460 it was > 100 µM (inactive); in the assay with UO-31, > 100 µM (inactive); with SK-MEL-2, > 100 µM (inactive); with UACC-257 it was > 100 µM (inactive); in the assay with HCT-15, over 100 µM. The GI50 is > 100 µM (inactive) with NCI-H23; > 100 µM (inactive) in the assay with OVCAR-5; > 100 µM (inactive) in the assay on HL-60; > 100 µM (inactive) with HCC 2998; > 10 µM (inactive) in the assay on MOLT-4; > 100 µM (inactive) in the assay with K562. Besides, the GI50 with SK-MEL-28, in the assay with HCT-116 and with OVCAR-3 was > 100 µM (inactive) throughout.
As for `COc1ccc(C(=O)Cc2cc(OC)ccc2OC)cc1`, the GI50 with RXF 393 was 58.9 µM (inactive); in the assay on SN12C, > 100 µM (inactive); in the assay with NCI-H460 it was > 100 µM (inactive); with UO-31 it was > 100 µM (inactive); in the assay on SK-MEL-2 it was > 100 µM (inactive); in the assay on UACC-257 it was > 100 µM (inactive). Further, the GI50 with HCT-15 is over 100 µM; in the assay with NCI-H23 it was > 100 µM (inactive); with OVCAR-5, > 100 µM (inactive); in the assay with SF-268, 61.4 µM (inactive); in the assay with HL-60, > 100 µM (inactive); with HCC 2998, > 100 µM (inactive). Further, the GI50 in the assay with UACC-62, in the assay on EKVX, with MOLT-4, in the assay on K562, in the assay on HCT-116 and with OVCAR-3 was > 100 µM (inactive) each time.
As to `CC(=O)OC1CC2(O)C(CCC3(C)C(c4ccc(=O)oc4)CCC32O)C2(C)CCC(O)C=C12` (configuration not stated), the GI50 in the assay on RXF 393 is 0.0375 µM (active); in the assay on SN12C, 0.00462 µM (active); in the assay with NCI-H460, 0.00454 µM (active); in the assay with UO-31, 0.0297 µM (active); with SK-MEL-2, 0.0177 µM (active); in the assay on UACC-257, 0.0242 µM (active). Further, the GI50 in the assay with HCT-15 is 0.0239 µM; in the assay with NCI-H23, 0.00246 µM (active); in the assay with OVCAR-5 it was 0.104 µM (active); in the assay on SF-268 it was 0.0375 µM (active); in the assay on HL-60, 0.00455 µM (active); in the assay with HCC 2998, 0.0644 µM (active). For the same molecule, the GI50 was 0.024 µM (active) with UACC-62; 0.0139 µM (active) in the assay with EKVX; 0.00182 µM (active) in the assay with MOLT-4; 0.0375 µM (active) in the assay with K562; 0.0375 µM (active) in the assay with SK-MEL-28; 0.0375 µM (active) with HCT-116. Also, the GI50 in the assay on OVCAR-3 is 0.00469 µM (active).

The GI50 is the concentration giving 50% growth inhibition.

The values are drawn from ChEMBL document CHEMBL1201862, “PubChem BioAssay data set” (2004).
